Assays:
Mus musculus [1] = assay: In vivo photosensitizing efficacy when evaluated in mice assessed on day 90; type: functional
Mus musculus [2] = species: Mus musculus; assay: In vitro Efficacy to destroy the RIF tumor cells by MTT assay when incubated for 3 hr at drug concentration of 1.5 uM and exposed to laser light (780nm,16J/cm2); type: functional

SMILES | Efficacy (Mus musculus [1]) | Efficacy (Mus musculus [2])
CCCCCCCO[C@@H](C)C1=C(C)c2cc3[nH]c(c4c5[nH]c(cc6nc(cc1n2)[C@H](C)[C@H]6CC)c(C)c5C(=O)N(CCCCCC)C4=O)[C@@H](CCC(=O)OCCC)[C@@H]3C | 2 No. of mice tumor free | 100%
CCCCCCCO[C@H](C)C1=C(C)c2cc3[nH]c(c4c5[nH]c(cc6nc(cc1n2)[C@H](C)[C@H]6CC)c(C)c5C(=O)N(CCCCCC)C4=O)[C@@H](CCC(=O)OCCC)[C@@H]3C | 6 No. of mice tumor free | 100%
